# Assay: Solubility of material samples covered with tr-1233zd or cis-1233zd in vials (Examples 8-13)
# Conditions: for Amount of heparin dissolved: remained clear overnight
# Source text: Test samples of commercial acrylic plastic sheet cut into ¼″×2″ piece were placed into 20 cc vials with septum screw cap. Solvents (tr-1233zd & cis-1233zd) were slowly added by a syringe to cover the entire plastic sample inside the vial. The purpose was to observe if any degradation happens to the plastic.
# Test samples of commercial high impact styrene plastic sheet cut into ¼″×2″ piece were placed into 20 cc vials with septum screw cap. Solvents (tr-1233zd & cis-1233zd) were slowly added by a syringe to cover the entire plastic sample inside the vial. The purpose was to observe if any degradation happens to the plastic.
# Test samples of commercial acrylonitrile-butadiene-styrene (ABS) sheet cut into ¼″×2″ piece were placed into 20 cc vials with septum screw cap. Solvents (tr-1233zd & cis-1233zd) were slowly added by a syringe to cover the entire plastic sample inside the vial.
# The experiment in Example 8 is repeated with commercial polycarbonate material.
# The experiment of Example 8 was repeated with commercial Dow Polaroid™ Au-608-B acrylic material. This material is used in various coatings.
# The experiment of Example 8 was repeated with blood anti-coagulant material Heparin, which is used as a coating in medical devices.
substance,measurement,setting,value
Heparin,Solubility / effect of solvent on the material,,None of the solvents could dissolve the material
same,Amount of heparin dissolved,cis-1233zd with 2 wt % methanol,1.19 wt %
same,Amount of heparin dissolved,tr-1233zd with 2 wt % methanol,0.794 wt %
